Patent US20220030868A1, “FUNGICIDAL HALOMETHYL KETONES AND HYDRATES” (FMC CORPORATION, priority 2018, published 2022)

Columns and labels:
[1] = test system: Phakopsora pachyrhizi; assay: Test A: test suspension sprayed on soybean seedlings one day before inoculation with Phakopsora pachyrhizi spores (Asian soybean rust), visual disease rating; assay type: in vivo; details: 100 = 100% disease control, 0 = no control; for pest or weed control at 10 ppm / pest or weed control at 50 ppm: Phakopsora pachyrhizi
How it was run: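 Compound dissolved in acetone (3% of final volume), then suspended at the stated ppm in 50/50 acetone/water with 250 ppm PEG400 surfactant; sprayed to run-off on soybean seedlings, inoculated with P. pachyrhizi spores next day. Held saturated at 22° C for 24 h, then 8 days at 22° C; visual rating as % disease control versus controls.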

[2] = test system: Puccinia recondita f. sp. tritici; assay: Test B: test suspension sprayed on wheat seedlings one day before inoculation with Puccinia recondita f. sp. tritici spores (wheat leaf rust), disease rating; assay type: in vivo; details: 100 = 100% disease control, 0 = no control
How it was run: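 Wheat seedlings were sprayed to run-off with compound suspended in 50/50 acetone/water containing 250 ppm PEG400, then inoculated with P. recondita f. sp. tritici spores the next day. Plants were held 24 h in saturated air at 20 °C, then 6 days in a growth chamber at 20 °C. Disease control was rated 0–100% relative to controls, with some entries run at 50 or 10 ppm.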

## CC#CCOC(=O)c1ccn(Cc2ccc(O/C=C(\OCC)C(F)(F)F)cc2)n1 [compound 293]
[1]; 10 ppm test suspension
  Test A rating (disease control): 100%
[2]; 10 ppm test suspension
  Test B rating (disease control): 0%

## CCOC(=O)c1cnn(Cc2ccc(OCC3(C(F)(F)F)OCC(C)(C)O3)cc2)c1 (stereo not drawn) [Compound 12, ethyl 1-[[4-[[4,4-dimethyl-2-(trifluoromethyl)-1,3-dioxolan-2-yl]methoxy]-phenyl]methyl]-1H-pyrazole-4-carboxylate]
[1]; 10 ppm test suspension
  pest or weed control at 10 ppm: 13%
[2]; 10 ppm test suspension
  pest or weed control at 10 ppm: 0%

## CCOC(=COc1ccc(CC2CC(C(=O)N(C)C)=NO2)cc1)C(F)(F)F (mixture of isomers) [compound 288]
[1]; 50 ppm test suspension
  Test A rating (disease control): 96%
[2]; 50 ppm test suspension
  Test B rating (disease control): 0%

## CCOC(=O)c1cnn(C(C)c2ccc(OCC3(C(F)(F)F)OCCO3)cc2)c1 (stereo not drawn) [compound 26]
[1]; 10 ppm test suspension
  Test A rating (disease control): 99%
[2]; 10 ppm test suspension
  Test B rating (disease control): 0%

## O=C(c1csc(Cc2ccc(OCC(O)(O)C(F)(F)F)cc2)n1)N1CCC(F)(F)C1 [Compound 135]
[1]; 10 ppm test suspension
  Test A rating (disease control): 86%
[2]; 10 ppm test suspension
  Test B rating (disease control): 61%

## O=C(OCC1CCC1)c1cnn(Cc2ccc(OCC3(C(F)(F)F)OCCO3)cc2)c1 [compound 249]
[1]; 10 ppm test suspension
  Test A rating (disease control): 100%
[2]; 10 ppm test suspension
  Test B rating (disease control): 0%

## FC(F)(F)c1nc(-c2ccc(OCC3(C(F)(F)F)OCCO3)cc2)no1 [compound 173]
[1]; 10 ppm test suspension
  Test A rating (disease control): 0%
[2]; 10 ppm test suspension
  Test B rating (disease control): 0%

## N#Cc1cccc(OCC2(C(F)(F)F)OCCO2)c1 [compound 147]
[1]; 50 ppm test suspension
  pest or weed control at 50 ppm: 77%
[2]; 50 ppm test suspension
  pest or weed control at 50 ppm: 0%

## O=C(NCC(F)F)c1cnc(Cc2ccc(OCC(O)(O)C(F)(F)F)cc2)s1 [Compound 295]
[1]; 50 ppm test suspension
  Test A rating (disease control): 99%
[2]; 50 ppm test suspension
  Test B rating (disease control): 80%

## CCO/C(=C\Oc1cccc(Cn2cc(C(=O)OCC(C)C)cn2)c1)C(F)(F)F [compound 334]
[1]; 10 ppm test suspension
  Test A rating (disease control): 100%
[2]; 10 ppm test suspension
  Test B rating (disease control): 0%

## C=CCOC(=O)c1cnn(Cc2ccc(O/C=C(\OCC)C(F)(F)F)cc2)c1 [compound 246]
[1]; 10 ppm test suspension
  Test A rating (disease control): 100%
[2]; 10 ppm test suspension
  Test B rating (disease control): 0%

## N#CCOC(=O)c1cnn(Cc2ccc(OCC3(C(F)(F)F)OCCO3)cc2)c1 [compound 172]
[1]; 10 ppm test suspension
  Test A rating (disease control): 100%
[2]; 10 ppm test suspension
  Test B rating (disease control): 0%

## CCOC(=O)c1ccn(Cc2ccc(OCC(O)(O)C(F)(F)F)cc2)n1 [Compound 233]
[1]; 50 ppm test suspension
  Test A rating (disease control): 100%
[2]; 50 ppm test suspension
  Test B rating (disease control): 96%

## CCO/C(=C\Oc1cccc(Cn2cc(C(=O)OCC3CCC3)cn2)c1)C(F)(F)F [compound 342]
[1]; 10 ppm test suspension
  Test A rating (disease control): 100%
[2]; 10 ppm test suspension
  Test B rating (disease control): 0%

## CCO/C(=C\Oc1ccc(CSC#N)cc1)C(F)(F)F [compound 155]
[1]; 10 ppm test suspension
  Test A rating (disease control): 0%
[2]; 10 ppm test suspension
  Test B rating (disease control): 0%

## CCOC(=O)C1CCCN(Cc2ccc(O/C=C(\OCC)C(F)(F)F)cc2)C1 (stereo not drawn) [compound 269]
[1]; 10 ppm test suspension
  Test A rating (disease control): 100%
[2]; 10 ppm test suspension
  Test B rating (disease control): 0%

## CCOC(=O)c1cnn(Cc2cccc(OCC3(C(F)(F)F)OCCO3)c2)c1 [compound 146]
[1]; 50 ppm test suspension
  pest or weed control at 50 ppm: 60%
[2]; 50 ppm test suspension
  pest or weed control at 50 ppm: 0%

## CCO/C(=C\Oc1ccc(Cn2cnc(SC)n2)cc1)C(F)(F)F [Compound 261]
[1]; 10 ppm test suspension
  Test A rating (disease control): 0%
[2]; 10 ppm test suspension
  Test B rating (disease control): 0%

## CCOC(=O)C1=NOC(Cc2ccc(OC=C(OCC)C(F)(F)F)cc2)C1 (mixture of isomers) [compound 287]
[1]; 50 ppm test suspension
  Test A rating (disease control): 77%
[2]; 50 ppm test suspension
  Test B rating (disease control): 0%

## CCOC(=O)c1ccn(Cc2ccc(OCC3(C(F)(F)F)OCCO3)cc2)n1 [compound 232]
[1]; 10 ppm test suspension
  Test A rating (disease control): 98%
[2]; 10 ppm test suspension
  Test B rating (disease control): 0%

## CCOC(=O)c1ccnn1Cc1ccc(O/C=C(\OCC)C(F)(F)F)cc1 [compound 241]
[1]; 10 ppm test suspension
  Test A rating (disease control): 0%
[2]; 10 ppm test suspension
  Test B rating (disease control): 0%

## O=C(NCC(F)(F)F)c1cnc(Cc2ccc(OCC(O)(O)C(F)(F)F)cc2)s1 [Compound 277]
[1]; 10 ppm test suspension
  Test A rating (disease control): 50%
[2]; 10 ppm test suspension
  Test B rating (disease control): 45%

## CCO/C(=C\Oc1ccc(C(C)=O)cc1)C(F)(F)F [compound 79]
[1]; 50 ppm test suspension
  Test A rating (disease control): 0%
[2]; 50 ppm test suspension
  Test B rating (disease control): 0%

## CCO/C(=C\Oc1ccc(Cc2nc(C(=O)NCC(F)(F)F)cs2)cc1)C(F)(F)F [compound 129]
[1]; 10 ppm test suspension
  Test A rating (disease control): 100%
[2]; 10 ppm test suspension
  Test B rating (disease control): 0%

## CCOC(=O)c1cnn(COCc2ccc(O/C=C(\OCC)C(F)(F)F)cc2)c1 [Compound 297, ethyl 1-[[4-[[(1Z)-2-ethoxy-3,3,3-trifluoro-1-propen-1-yl]oxy]phenylmethoxy]methyl]-1H-pyrazole-4-carboxylate]
[1]; 10 ppm test suspension
  pest or weed control at 10 ppm: 100%
[2]; 10 ppm test suspension
  pest or weed control at 10 ppm: 0%

## CCO/C(=C\Oc1ccc(Cn2ccc(C(=O)OCCCCl)n2)cc1)C(F)(F)F [compound 362]
[1]; 10 ppm test suspension
  Test A rating (disease control): 100%
[2]; 10 ppm test suspension
  Test B rating (disease control): 0%

## O=C(NCC(F)(F)F)c1cnc(Cc2ccc(OCC3(C(F)(F)F)OCCO3)cc2)o1 [Compound 257]
[1]; 10 ppm test suspension
  Test A rating (disease control): 54%
[2]; 10 ppm test suspension
  Test B rating (disease control): 0%
